{
  "source": "patent US20090047365A1",
  "about": "“Novel Concomitant Use of Sulfonamide Compound with Anti-Cancer Agent” (Eisai R & D Management Co., Ltd., priority 2005, published 2009)",
  "key": {"[1]": {"tested_on": "human pancreas cancer cell line KP-1", "assay": "subcutaneous transplant model of human pancreas cancer cell line (KP-1), E7820 and Gemcitabine", "conditions": "KP-1 nude mouse; E7820 50 mg/kg twice a day, three weeks, oral; Gemcitabine 200 mg/kg once in three days x4, intravenous; control 14.8 ± 2.28", "procedure": "Human pancreas cancer cell line KP-1 (obtained from the National Kyushu Cancer Center) was cultured in RPMI1640 (containing 10% FBS) in a 5% carbon dioxide incubator at 37° C. to about 80% confluence, and the cells were collected with trypsin-EDTA. Using a phosphate buffer, 1×10^8 cells/mL suspension was prepared, and 0.11 mL each of the resulting cell suspension was subcutaneously transplanted to a nude mouse at the side of its body. […] The major and minor axes of tumors were measured with Digimatic caliper (Mitsutoyo), and tumor volumes and relative tumor volumes were calculated according to the following formulae.\nTumor Volume TV=Major axis of tumor(mm)×(Minor axis of tumor)^2(mm^2)/2\n(§1) Relative Tumor Volume RTV=Tumor volume on measurement day/Tumor volume on the first administration day"}, "[2]": {"tested_on": "DNA-topoisomerase II mRNA", "assay": "quantification of DNA-topoisomerase II mRNA by RT-PCR", "format": "cell-based, human", "conditions": "HUVEC, 1 μM, six hours; untreated group 4.4 μg/ml", "protocol": "2×10^6 of human umbilical vein endothelial cells were seeded in a 25 cm^2 cell culture bottle and cultured in a CO2 incubator at 37° C. using a EGM-2 medium (Sanko Junyaku) overnight. On the following day, E7820 was added to give 1 μM. Six hours later, RNA was prepared from the cells. Specifically, the medium was removed from the cells. The cells were added with and dissolved in 3 ml of ISOGEN (Wako Pure Chemical Industries), added with an equal volume of CHCl3 and agitated. Then, the water phase was extracted. Half the amount of the water phase of isopropanol was added, left to stand for 5 minutes and centrifuged to collect the precipitate. The precipitate was washed with 70% ethanol, added with and dissolved in sterile water and absorbance at 260 nm was determined with a spectrophotometer to quantify the RNA amount.\nSubsequently, TaqMan Gold RT-PCR kit (Applied Biosystems) was used to perform RT-PCR reaction. Specifically, 0.1 μg of RNA was added to 50 μl of the reaction solution, and subjected to reactions at 25° C. for 10 minutes, 48° C. for 30 minutes and 95° C. for 5 minutes to prepare cDNA. Then, a primer for determining DNA-topoisomerase II mRNA (ABI Taqman probe Hs00172214 ml) was used for PCR reaction and then ABI7700 (Applied Biosystems) was used for quantifying RNA amount."}, "[3]": {"tested_on": "human colon cancer cell line Colo320DM", "assay": "subcutaneous transplant model of human colon cancer cell line (Colo320DM), E7820 and CPT-11", "conditions": "Colo320DM nude mouse; E7820 50 mg/kg twice a day, two weeks, oral; CPT-11 100 mg/kg once in four days x3, intravenous; control 11.99 ± 1.35", "procedure": "Human colon cancer cell line Colo320DM (purchased from Dainippon Pharmaceutical) was cultured in RPMI1640 (containing 10% FBS) in a 5% carbon dioxide incubator at 37° C. to about 80% confluence, and the cells were collected with trypsin-EDTA. Using a phosphate buffer containing 50% matrigel, 7.5×10^7 cells/mL suspension was prepared, and 0.1 mL each of the resulting cell suspension was subcutaneously transplanted to a nude mouse at the side of its body. […] The major and minor axes of tumors were measured with Digimatic caliper (Mitsutoyo), and tumor volumes and relative tumor volumes were calculated according to the following formulae.\nTumor Volume TV=Major axis of tumor(mm)×(minor axis of tumor)^2(mm^2)/2\nas §1"}, "HCT116 cells": {"tested_on": "HCT116 cells", "assay": "DNA microarray analysis (Example 8), correlation coefficients and hierarchical cluster analysis", "format": "cell-based, human", "conditions": "24 hours treatment at twice the 50% growth inhibitory concentration, similarity among the compounds named together", "protocol": "HCT116 cells were cultured in an RPMI-1640 medium supplemented with 10% fetal bovine serum, 100 units/ml penicillin and 100 μg/ml streptomycin. The following cultivation and compound treatment were carried out in an incubator at 5% CO2 and 37° C. HCT116 cells were seeded in 10 cm-diameter cell culture dishes at 2.0×10^6 cells/dish, cultured for 24 hours and subjected to the following compound treatment.\nIn this example, changes in the gene expression of HCT116 cells upon treatments with 12 compounds, i.e., E7820 (0.16 μM), E7070 (0.26 μM), LY186641 (59 μM), LY295501 (24 μM), LY-573636 (9.6 μM), CQS (4.0 μM), MST16 (100 μM), etoposide (3.6 μM), ethoxzolamide (410 μM), capsaicin (280 μM), trichostatin A (0.16 μM) and kenpaullone (7.1 μM) were examined.\nThe concentration of each compound used for the treatment was set to twice the 50% growth inhibitory concentration of each compound to the HCT116 cells (based on three days of antiproliferatrive activity using MTT). The cells were collected 24 hours after the treatment at the concentration indicated in parentheses following each compound name above. Similarly, cells cultured for 24 hours without the addition of any compound were also collected.\nTotal RNA extraction from the collected cells was performed using TRIZOL reagent (Invitrogen) according to the attached instruction.\nGene expression analysis using a DNA microarray was carried out in the same manner as “(2) Analysis of gene expression using DNA microarray” in Example 7.\nThis example was conducted for each sample in duplicate (for the convenience of the experiment, samples were given branch numbers like control-1, control-2, E7070-1, E7070-2 and so on for distinction). Then, GeneChip (Affymetrix) system (Human Focus array) was used for analyzing changes in the gene expression induced by each compound.\nTwenty-six “.cel” files obtained in this example (13 samples (a control+12 compounds)×2) were subjected to RMA method (robust multi-array average method (Biostatistics (2003), 4, 249-264)) for normal distribution at probe level, and then the logarithm value of the signal intensity at gene level was calculated. Next, the logarithm value of the signal intensity of the untreated group (control-1) was subtracted from the logarithm value of the signal intensity of the compound-treated group for each gene to obtain the logarithm value of the signal ratio of the compound-treated group to control-1. Then, cosine correlation coefficients were calculated as correlation coefficients between the experiments (FIG. 5). Based on these correlation coefficients, hierarchical cluster analysis was performed according to UPGMA method (Unweighted Pair Group Method with Arithmetic mean method) (FIG. 6). Control-2 was also subjected to similar calculation (FIGS. 7 and 8). The softwares used were R 2.0.1 (http://www.r-project.org/) and affy package 1.5.8 (http://www.bioconductor.org)."}, "[4]": {"tested_on": "human colon cancer cell line Colo320DM", "assay": "subcutaneous transplant model of human colon cancer cell line (Colo320DM), E7820 and Oxaliplatin", "format": "in vivo", "conditions": "Colo320DM nude mouse; E7820 50 mg/kg twice a day, two weeks, oral; Oxaliplatin 10 mg/kg once in four days x3, intravenous; control 11.99 ± 1.35"}},
  "data": [
    {"smiles": "Cc1ccc(NS(=O)(=O)c2cccc(C#N)c2)c2[nH]cc(C#N)c12", "note": "[E7820, N-(3-cyano-4-methyl-1H-indole-7-yl)-3-cyanobenzenesulfonamide]", "values": [
      {"measurement": "Relative tumor volume on Day 22 Average ± standard deviation", "setting": "[1]", "result": "8.81 ± 2.57"},
      {"measurement": "amount of DNA-topoisomerase II mRNA", "setting": "[2]", "result": 1.6, "unit": "µg/mL"},
      {"measurement": "Relative tumor volume on Day 15 Average ± standard deviation", "setting": "[3]", "result": "7.05 ± 1.15"},
      {"measurement": "changes in gene expression (correlation coefficients, hierarchical cluster analysis)", "setting": "HCT116 cells", "result": "very similar genetic alterations"},
      {"measurement": "Relative tumor volume on Day 15 Average ± standard deviation", "setting": "[4]", "result": "7.05 ± 1.15"}
    ]}
  ]
}
